Structures are written as SMILES. pKd: −log10 of the molar value. Like-named read-outs stand apart in the source and are kept apart here.

The target in assay [1] is T1, Bovine liver glutamate dehydrogenase (Bos taurus, UniProt P00366). Particulars: cited from earlier work.
For assay [2], the target named is T1, Bovine liver glutamate dehydrogenase. Briefly: Fluorescence titrations of reduced cofactor binding. The settings on record: NADPH, pH 8.0.
Assay [3] shares this target. The assay is described as follows: Thermal stability by differential scanning calorimetry. The format is binding. On the technique in general: Differential scanning calorimetry records heat flow against a reference as temperature is scanned.
For assay [4] the target is unchanged. Briefly: Initial rate kinetics of oxidative deamination, zinc inhibition. The format is biochemical.
For a further assay, the system named is immobilized trypsin. The assay is described as follows: Control experiments with azocasein on immobilized protease. The format is biochemical. Particulars: azocasein as substrate, zinc at the concentrations used.
Assay [5] has as its target T1, Bovine liver glutamate dehydrogenase. Particulars: pH 7.0, 1mM NAD^+.
Assay [6] shares this target. The settings on record: plus zinc.
[7] abbreviates: enzyme + 200mM norvaline, pH 7.0.
Setting [8] is: enzyme + 20mM glutamate + zinc, pH 7.0.
[9] abbreviates: enzyme + 200mM norvaline + zinc, pH 7.0.
[10] abbreviates: enzyme + zinc, 0.1 M phosphate pH 7.0.
Where [11] appears, read: control experiments, data not shown.

T1 sequence (P00366 58-558): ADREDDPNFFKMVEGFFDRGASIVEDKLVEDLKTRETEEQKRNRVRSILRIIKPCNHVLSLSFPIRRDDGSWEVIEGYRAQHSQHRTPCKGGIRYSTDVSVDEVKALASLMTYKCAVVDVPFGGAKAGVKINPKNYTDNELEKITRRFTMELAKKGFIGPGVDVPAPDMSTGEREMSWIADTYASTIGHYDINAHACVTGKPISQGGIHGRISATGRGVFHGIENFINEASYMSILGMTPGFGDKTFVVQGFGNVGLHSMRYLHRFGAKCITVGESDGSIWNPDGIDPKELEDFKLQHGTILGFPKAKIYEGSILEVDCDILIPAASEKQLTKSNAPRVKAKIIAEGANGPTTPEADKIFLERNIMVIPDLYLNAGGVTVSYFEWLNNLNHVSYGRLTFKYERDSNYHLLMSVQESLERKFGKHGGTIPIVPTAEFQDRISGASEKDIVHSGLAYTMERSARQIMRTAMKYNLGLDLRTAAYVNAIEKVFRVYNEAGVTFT

Take `[Cl-].[Cl-].[Cl-].[Eu+3]` [Eu^3+, europium (III) chloride]: in assay [1], the “Effect on the ability of zinc to inhibit the enzyme” value is on record as “reversed” and the “Effect on the activity of the enzyme” value is listed as “no effect”.
The term pKd denotes the Kd on a negative log10 scale, so that one unit is a factor of ten. Regarding `NC(=O)C1=CN([C@@H]2O[C@H](COP(=O)(O)OP(=O)(O)OC[C@H]3O[C@@H](n4cnc5c(N)ncnc54)[C@H](OP(=O)(O)O)[C@@H]3O)[C@@H](O)[C@H]2O)C=CC1` [NADPH, Nicotinamide Adenine Dinucleotide Phosphate], the pKd in assay [2] (+ 100 μM zinc) was 5.98; in assay [2] (+20mM glutamate + 100 μM zinc), 5.76; in assay [2] (+20mM glutamate), 5.62; in assay [2] (+200mM norvaline + 100 μM zinc) it was 5.03; in assay [2] (+200mM norvaline) it was 5.13; in assay [2] (no additions) it was 5.20.
For `CCC[C@H](N)C(=O)O` [Norvaline, norvaline], in assay [3] (setting [7]), the TM came out at 67.8 °C, the ΔH is listed as 188.7 and the ΔS turned out to be 0.554.
For `CC(=O)[O-].CC(=O)[O-].[Zn+2]` [Zinc, zinc acetate], the “Inhibition at saturating concentrations of substrates” value in assay [4] was “potent inhibitor”. In assay [4] (pH 8), the “Inhibition of oxidative deamination with glutamate as substrate” value is given as “effective inhibition” and the “Inhibition of oxidative deamination with norvaline as substrate” value is recorded as “no significant inhibition”. In addition, in assay [3] (setting [8]), the TM came to 59.3 °C, the ΔH was found to be 126.4 and the ΔS was found to be 0.381. For the same compound, in assay [3] (setting [9]), the TM was found to be 68.1 °C, the ΔH was 179.9 and the ΔS was determined as 0.528. In addition, in assay [3] (setting [10]), the TM came to 59.2 °C, the ΔH was found to be 128.9 and the ΔS was 0.388. For the same compound, in the assay on immobilized trypsin, the “Effect on the immobilized protease” value is on record as “did not effect”. In assay [5] (50mM glutamate + 100μM zinc), the “Pre-Steady State Burst Amplitude” value is 1.053 340F450, the “Pre-Steady State Burst Rate” value is on record as 0.858 340F450/sec and the “Steady State Rate” value is 0.187 340F450/sec. In addition, in assay [5] (50mM glutamate + 200μM zinc), the “Pre-Steady State Burst Amplitude” value is on record as 0.771 340F450, the “Pre-Steady State Burst Rate” value is on record as 0.972 340F450/sec and the “Steady State Rate” value is reported as 0.158 340F450/sec. Further, in assay [6] (5 Mins, pH 8.0), the “Fragment 3446 (residues 114–146) Peak Height relative to ACTH standard” value is given as 0.52, the “Fragment 4089 (residues 1–35) Peak Height relative to ACTH standard” value was determined as 0 and the “Fragment 34,645 (residues 144–459) Peak Height relative to Native” value amounted to 0.17. Moreover, in assay [6] (10 Mins, pH 8.0), the “Fragment 3446 (residues 114–146) Peak Height relative to ACTH standard” value is recorded as 0.54, the “Fragment 4089 (residues 1–35) Peak Height relative to ACTH standard” value amounted to 0.16 and the “Fragment 34,645 (residues 144–459) Peak Height relative to Native” value was found to be 0.18. In assay [6] (15 Mins, pH 8.0), the “Fragment 3446 (residues 114–146) Peak Height relative to ACTH standard” value is 0.75, the “Fragment 4089 (residues 1–35) Peak Height relative to ACTH standard” value amounted to 0.68 and the “Fragment 34,645 (residues 144–459) Peak Height relative to Native” value amounted to 0.86. Moreover, in assay [6] (Time = 0, pH 8.0), the “Fragment 3446 (residues 114–146) Peak Height relative to ACTH standard” value is on record as 0, the “Fragment 4089 (residues 1–35) Peak Height relative to ACTH standard” value amounted to 0 and the “Fragment 34,645 (residues 144–459) Peak Height relative to Native” value came out at 0.
Turning to `[Mg+2]` [magnesium], in assay [4] (setting [11]), the “Effect on the activity of the enzyme” value is reported as “no effect” and the “Effect on the inhibition by zinc” value was “no effect”.

The values are drawn from paper PMC3184404 (The FEBS journal, 2011).
